In ChEMBL document CHEMBL1201862, “PubChem BioAssay data set” (2004):
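These data come from cells grown in 96-well plates and exposed to compound for 48 hours at five concentrations. GI50 marks 50% less growth.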 Calls of active or inactive are those of the source. Rule as the data show it: active = GI50 up to about 1.1 µM and inactive = higher.

Columns and labels:
Test in all cases: inhibition of tumour cell growth, NCI panel, 48 h
[1] = tested on: A498
[2] = tested on: DU-145
[3] = tested on: EKVX
[4] = tested on: HCT-116
[5] = tested on: Hs-578T
[6] = tested on: LOX IMVI
[7] = tested on: NCI-H23
[8] = tested on: NCI-H460
[9] = tested on: NCI/ADR-RES
[10] = tested on: OVCAR-4
[11] = tested on: PC-3
[12] = tested on: SF-295
[13] = tested on: SF-539
[14] = tested on: SK-MEL-2
[15] = tested on: SNB-19
[16] = tested on: U-251
[17] = tested on: UACC-62
[18] = tested on: UO-31
[19] = tested on: Malme-3M
[20] = tested on: SN12C

Row | Compound | GI50 [1] | GI50 [2] | GI50 [3] | GI50 [4] | GI50 [5] | GI50 [6] | GI50 [7] | GI50 [8] | GI50 [9] | GI50 [10] | GI50 [11] | GI50 [12] | GI50 [13] | GI50 [14] | GI50 [15] | GI50 [16] | GI50 [17] | GI50 [18] | GI50 [19] | GI50 [20]
1 | COc1ccc2c(=O)c3c([nH]c2c1)OCC3=O | > 100 µM (inactive) | > 100 µM (inactive) | > 100 µM (inactive) | > 100 µM (inactive) | > 100 µM (inactive) | > 100 µM (inactive) | > 100 µM (inactive) | > 100 µM (inactive) | > 100 µM (inactive) | > 100 µM (inactive) | > 100 µM (inactive) | > 100 µM (inactive) | > 100 µM (inactive) | > 100 µM (inactive) | > 100 µM (inactive) | > 100 µM (inactive) | > 100 µM (inactive) | > 100 µM (inactive) | – | –
2 | CC1CN=C(N(C(=O)Nc2ccc(F)c(Cl)c2)c2ccccc2)S1 (stereo not drawn) | 21.1 µM (inactive) | 36.8 µM (inactive) | 22 µM (inactive) | 21.5 µM (inactive) | 38.5 µM (inactive) | 17.5 µM (inactive) | 19.2 µM (inactive) | 25.4 µM (inactive) | 17.9 µM (inactive) | 48.3 µM (inactive) | 24.1 µM (inactive) | 31.3 µM (inactive) | 41.1 µM (inactive) | 17.5 µM (inactive) | 43.2 µM (inactive) | 20.6 µM (inactive) | – | 25.8 µM (inactive) | 30.3 µM (inactive) | 17.2 µM (inactive)
3 | COc1ccc(C2=C(Cl)C(=O)N(c3ccc(OC)cc3OC)C(=O)C2(Cl)Cl)cc1 | – | 17.3 µM (inactive) | 32.8 µM (inactive) | 15.5 µM (inactive) | < 0.01 µM (active) | 14.7 µM (inactive) | 15.4 µM (inactive) | 45.2 µM (inactive) | 14.5 µM (inactive) | 14.5 µM (inactive) | 13.2 µM (inactive) | 24.3 µM (inactive) | 10.4 µM (inactive) | 20.9 µM (inactive) | 56.6 µM (inactive) | 16.6 µM (inactive) | 14.5 µM (inactive) | 14.8 µM (inactive) | 14.6 µM (inactive) | < 0.01 µM (active)
4 | Nc1ncnc2c1ncn2C1CCC(COS(N)(=O)=O)C1 (stereo not drawn) | – | > 100 µM (inactive) | > 100 µM (inactive) | 57.5 µM (inactive) | 65.5 µM (inactive) | 37 µM (inactive) | > 100 µM (inactive) | > 100 µM (inactive) | > 100 µM (inactive) | > 100 µM (inactive) | > 100 µM (inactive) | > 100 µM (inactive) | 27 µM (inactive) | > 100 µM (inactive) | > 100 µM (inactive) | > 100 µM (inactive) | > 100 µM (inactive) | > 100 µM (inactive) | > 100 µM (inactive) | > 100 µM (inactive)
5 | COC(=O)C(C)(NC(=O)C(CC(=O)OC(C)(C)C)NC(=O)OC(C)(C)C)c1ccccc1 (stereo not drawn) | 54.3 µM (inactive) | > 100 µM (inactive) | > 100 µM (inactive) | > 100 µM (inactive) | > 100 µM (inactive) | > 100 µM (inactive) | > 100 µM (inactive) | 85.7 µM (inactive) | 55.1 µM (inactive) | – | > 100 µM (inactive) | 81.8 µM (inactive) | > 100 µM (inactive) | – | > 100 µM (inactive) | > 100 µM (inactive) | > 100 µM (inactive) | 26.5 µM (inactive) | 40 µM (inactive) | > 100 µM (inactive)
6 | C=CCOC(OCC=C)/C(Br)=C/C | > 100 µM (inactive) | 55.2 µM (inactive) | 35.9 µM (inactive) | 13.5 µM (inactive) | 26.8 µM (inactive) | 16.5 µM (inactive) | 31 µM (inactive) | 67.3 µM (inactive) | 31 µM (inactive) | 24.5 µM (inactive) | 93.1 µM (inactive) | > 100 µM (inactive) | – | 68.2 µM (inactive) | > 100 µM (inactive) | 59.2 µM (inactive) | 64.4 µM (inactive) | 34.9 µM (inactive) | – | > 100 µM (inactive)
7 | O=c1oc2ccccc2n1CCN1CCCCC1 | > 100 µM (inactive) | > 100 µM (inactive) | > 100 µM (inactive) | > 100 µM (inactive) | > 100 µM (inactive) | > 100 µM (inactive) | > 100 µM (inactive) | > 100 µM (inactive) | > 100 µM (inactive) | – | > 100 µM (inactive) | > 100 µM (inactive) | > 100 µM (inactive) | > 100 µM (inactive) | > 100 µM (inactive) | > 100 µM (inactive) | > 100 µM (inactive) | – | > 100 µM (inactive) | > 100 µM (inactive)
8 | Clc1ccc(/C=N/c2ccc(Oc3ccc(Cl)cc3)c(Cl)c2)cc1 | – | 30.8 µM (inactive) | 27.8 µM (inactive) | 17.9 µM (inactive) | 21.5 µM (inactive) | 18.8 µM (inactive) | 23.5 µM (inactive) | 21.5 µM (inactive) | 20.8 µM (inactive) | 25.3 µM (inactive) | 22.1 µM (inactive) | 18.8 µM (inactive) | 17.2 µM (inactive) | 22.1 µM (inactive) | 23 µM (inactive) | 23.9 µM (inactive) | 19.8 µM (inactive) | 11.5 µM (inactive) | 20.2 µM (inactive) | 19.5 µM (inactive)
9 | COc1cccc(N2C(=O)/C(=C\c3ccccc3)SC2c2cc(OC)c(OC)c(OC)c2)c1 (stereo not drawn) | 28.8 µM (inactive) | 41.2 µM (inactive) | 44.2 µM (inactive) | 30.1 µM (inactive) | 30.4 µM (inactive) | 37.8 µM (inactive) | 52.6 µM (inactive) | – | 41.9 µM (inactive) | 46.5 µM (inactive) | 46.5 µM (inactive) | 35.5 µM (inactive) | – | 62.1 µM (inactive) | 77.6 µM (inactive) | 33.3 µM (inactive) | 24.1 µM (inactive) | 43.2 µM (inactive) | – | 52 µM (inactive)
10 | COc1ccc2c(c1)CCN=C2c1ccccc1CCCCl | 49.1 µM (inactive) | 36.5 µM (inactive) | 17.7 µM (inactive) | 18.2 µM (inactive) | 16.5 µM (inactive) | – | 4.85 µM (inactive) | 13.6 µM (inactive) | 26.4 µM (inactive) | 13.7 µM (inactive) | 17 µM (inactive) | 20.5 µM (inactive) | 18.6 µM (inactive) | 28 µM (inactive) | 7.67 µM (inactive) | 71.6 µM (inactive) | 36.1 µM (inactive) | 10 µM (inactive) | – | 6.93 µM (inactive)
11 | Cc1ccc2nc(-n3c(/C=C/c4ccccc4O)nc4ccccc4c3=O)sc2c1 | > 100 µM (inactive) | > 100 µM (inactive) | 19.8 µM (inactive) | > 100 µM (inactive) | > 100 µM (inactive) | > 100 µM (inactive) | > 100 µM (inactive) | > 100 µM (inactive) | > 100 µM (inactive) | > 100 µM (inactive) | > 100 µM (inactive) | > 100 µM (inactive) | – | > 100 µM (inactive) | > 100 µM (inactive) | > 100 µM (inactive) | > 100 µM (inactive) | > 100 µM (inactive) | – | –
12 | C=C(C)[C@@]1(OC(=O)c2cc([N+](=O)[O-])cc([N+](=O)[O-])c2)C[C@@H]2CCCC[C@@H]21 | – | > 100 µM (inactive) | 37.2 µM (inactive) | > 100 µM (inactive) | > 100 µM (inactive) | > 100 µM (inactive) | > 100 µM (inactive) | 46.9 µM (inactive) | > 100 µM (inactive) | 56.2 µM (inactive) | > 100 µM (inactive) | 72.9 µM (inactive) | > 100 µM (inactive) | 58.3 µM (inactive) | > 100 µM (inactive) | > 100 µM (inactive) | > 100 µM (inactive) | 16.4 µM (inactive) | 34.2 µM (inactive) | > 100 µM (inactive)
13 | CC(=O)OCC1=C(C)C[C@H]([C@@H](COC(C)=O)C2CCC3C4C[C@H]5O[C@]56CC=CC(=O)[C@]6(C)C4CC[C@@]32C)OC1=O (stereo partly drawn) | 0.624 µM (active) | 0.414 µM (active) | 0.465 µM (active) | 0.097 µM (active) | 1 µM (active) | 0.122 µM (active) | 0.37 µM (active) | 0.929 µM (active) | 0.185 µM (active) | 0.359 µM (active) | 0.417 µM (active) | 1.19 µM (inactive) | – | 0.716 µM (active) | 0.681 µM (active) | 0.329 µM (active) | 0.258 µM (active) | 0.993 µM (active) | 0.274 µM (active) | 0.444 µM (active)
14 | COC(NC(=O)Nc1ccccc1C)(C(F)(F)F)C(F)(F)F | > 100 µM (inactive) | > 100 µM (inactive) | – | > 100 µM (inactive) | > 100 µM (inactive) | > 100 µM (inactive) | 81.5 µM (inactive) | > 100 µM (inactive) | > 100 µM (inactive) | > 100 µM (inactive) | 56.4 µM (inactive) | > 100 µM (inactive) | > 100 µM (inactive) | – | 44.4 µM (inactive) | 34.5 µM (inactive) | 56.6 µM (inactive) | > 100 µM (inactive) | – | > 100 µM (inactive)
15 | CCOc1cc(C2CC(c3ccc(NS(=O)(=O)c4cc([N+](=O)[O-])ccc4C)cc3)=NN2C(=O)c2ccccc2)ccc1O (stereo not drawn) | 10.2 µM (inactive) | 32.7 µM (inactive) | 18.7 µM (inactive) | 15.3 µM (inactive) | 16.8 µM (inactive) | 26.9 µM (inactive) | 21.5 µM (inactive) | – | 23.3 µM (inactive) | 24.6 µM (inactive) | 17.5 µM (inactive) | 20.8 µM (inactive) | 20.9 µM (inactive) | 13.7 µM (inactive) | 29.6 µM (inactive) | 18.7 µM (inactive) | – | 15.2 µM (inactive) | 13.8 µM (inactive) | 22.3 µM (inactive)
